Measured values as given in publication PMC8703450, “New Heterocyclic Combretastatin A-4 Analogs: Synthesis and Biological Activity of Styryl-2(3H)-benzothiazolones” (Pharmaceuticals, 2021).

How the values were obtained:
EA.hy926 cells [1] = test: MTT cytotoxicity / growth inhibition assay, EA.hy926; assay type: cell-based, human
Method: The endothelial cell line (EA.hy926) was kindly provided by Dr. C-J.S. Edgell—University of North Carolina, USA. Cells were cultured in 4.5 g/L D-Glucose DMEM/F12 medium, supplemented with 10% fetal bovine serum (FBS, Cytogen GmBH, Greven, Germany) and 100 U/mL penicillin and streptomycin (Lonza BioWhitaker, Verviers, Belgium). The other cell lines used are described in Table S3.1. Cell cultures were maintained in an incubator at 37 °C with 95% humidity and 5% CO2 and were routinely found free of mycoplasma.
All tested compounds were dissolved in DMSO at 25 mM initial concentration and diluted with medium to obtain the working concentrations (0.01 nM–250 µM). Serial drug dilutions were prepared in medium immediately before each experiment. The DMSO working concentration in the medium was […]. For the MTT assay, cells were seeded into 96-well microtitre plates at a density of 1 × 10^4 in 100 µL complete medium per well. They were further incubated for 24 h, followed by treatment with CA-4 analogs up to 72 h. Cell viability was determined using the MTT assay. Ten µL of MTT solution (5 mg/mL) was added to each well and further incubated for 3 h at 37 °C. To dissolve the formazan product, 100 µL/well of 99.5% isopropanol was added. Cell viability was determined by measuring absorbance at 550/630 nm using a DTX880 plate reader (Beckman Coulter, USA). Results, expressed as concentrations that inhibit 20% (IC20), 50% (IC50), and 80% (IC80) of cell growth, were calculated using GraphPad Prism 8.0.1.

[2] = test system: rhodamine-labeled α,β-tubulin; test: Ex vivo rhodamine-tubulin polymerization (fluorescence microscopy); conditions: 20 μM, 37 °C, 45 min
Method: TAMRA-Tubulin (TL590M, Cytoskeleton) diluted in GTB buffer (PEM, 10% glycerol, 1 mM GTP) was mixed with unlabeled α,β-tubulin (T240, Cytoskeleton) at a ratio of 1:3 (v/v) to a concentration of 4.0 mg/mL. […] Samples were then centrifuged for 20 min at 30,000× g. The pellets were diluted in 6 µL PEM buffer, containing 1 mM GTP and 0.5% glutaraldehyde, mixed with anti-fade mounting media (P36934, Invitrogen, Eugene, USA), and examined under a confocal LSM 980 Airyscan microscope (Carl Zeiss AG, Oberkochen, Germany).

α,β-tubulin = test: In vitro quantification of polymeric vs. soluble tubulin fractions in EA.hy926 cells; assay type: cell-based, human; conditions: EA.hy926, 1 µM, 6 h; DMSO control 2.33 ± 0.14
Method: To assess the early effects on the microtubule cytoskeleton in vitro, EA.hy926 cells were cultured for 24 h in 6-cm dishes (3 × 10^5 cells). They were exposed to […] (control), 1 μM CA-4, paclitaxel, or increasing concentrations of 26Z (50, 100, 250, 2500, 10,000 nM) for 6 h. Cells were washed with PBS and lysed directly in the dishes with hypotonic lysis buffer (20 mM Tris-HCl, 1 mM MgCl2, 2 mM EGTA, 0.5% Triton X-100, glycerol 10%, pH 6.8), supplemented with protease inhibitors (2 μg/mL leupeptin, 2 μg/mL pepstatin, 0.4 mM Na vanadate, 0.5 mM PMSF, 1 mM DTT), for 3 min at 30 °C. The soluble fraction was immediately collected, mixed with 5× sample buffer, and boiled at 95 °C for 5 min. The polymerized fraction was collected directly from the culture dish following 10 min of incubation at room temperature with 1× sample buffer.
For the concentration-dependent assay, the cells were harvested by scraping and centrifuged at 1000 g for 5 min, and then lysed with the hypotonic cell lysis buffer for 10 min at room temperature. Tubulin fractions were obtained by centrifugation at 12,000 × g for 10 min.
Equal volumes of the samples were subjected to 10% SDS-PAGE followed by western blotting. Detection of β-tubulin content was accomplished with an anti-β-tubulin mouse monoclonal antibody (sc-101527, Santa Cruz Biotechnology).

EA.hy926 cells [3] = test: In vitro cell migration (wound-healing) assay; assay type: cell-based, human; conditions: EA.hy926, 50 nM, 24 h
Method: A total of 3 × 10^5 EA.hy926 cells were seeded in a 12-well plate and grown close to the confluence. The cell monolayer was gently scraped with a P200 pipette tip, creating a wound area around 1-mm wide. Cells were washed twice with fresh medium and treated with test compounds diluted in growth media to the corresponding sub-toxic concentrations. Images were acquired at 0 and 24 h following treatment. After incubation for 24 h, the scratch wound width was measured and recorded, and then compared with the initial scratch wound width at 0 h. Using the ImageJ image processing program (ImageJ150-WIN-Java8), the size of the denuded area in pixels was determined at each time point from the digital images.

EA.hy926 cells [4] = test: Clonogenic survival assay; assay type: cell-based, human; conditions: 72 h treatment + 6 days recovery; for decrease in colony number: EA.hy926, 250 nM; for reduction in colony formation: EA.hy926, 2.5, 10 and 25 µM
Method: EA.hy926 cells were seeded at 300 cells/well on a 6-well plate and incubated for 24 h. The cells were treated with different concentrations of test compounds for 72 h. After six additional days of growth in a fresh medium to form visible colonies, cells were washed with phosphate-buffered saline (PBS, pH 7.4) and stained with crystal violet (0.5%, w/v) in 6% glutaraldehyde. After 30 min of incubation, the plates were washed with tap water, dried, photographed, and analyzed using ImageJ [79]. Raw data were normalized to the corresponding DMSO control for each independent experiment. After normalization, statistically significant differences for colony-forming efficiency (CFE) values versus […] were calculated.

EA.hy926 cells [5] = test: Matrigel tube disruption assay; assay type: cell-based, human; conditions: EA.hy926 on Matrigel, IC50 concentration, 24 h of treatment, compared with time 0
Method: The tube formation assay was performed in 96-well plates coated with 40 µL BD Matrigel™ (basement membrane matrix), following the manufacturer’s instruction (BD Biosciences). A total of 2 × 10^4 EA.hy926 cells was re-suspended in growth medium and added to each well in a final volume of 100 µL. Tube formation was visualized directly using a light microscope. Images were captured using a phase-contrast microscope and quantitation was performed using the WimTube application of the Wimasis online image analysis platform (https://www.wimasis.com/en/products/13/WimTube; accessed on 1 June 2021).

[6] = Homo sapiens, EA.hy 926, 72 h of treatment

**Q.** For `COc1cc(/C=C/c2ccc3c(c2)sc(=O)n3C)cc(OC)c1OC` [Compound 26E, (E/Z)-3-Methyl-6-(3,4,5-Trimethoxystyryl)-2(3H)-Benzothiazolone], which IC50 (EA.hy926 cells [1]; 72 h of treatment) is on record?
**A.** 38.2 ± 5.35 µM

**Q.** With `COc1ccc(/C=C\c2cccc3sc(=O)n(C)c23)cc1` [Compound 15Z, (E/Z)-4-(4-Methoxystyryl)-3-Methyl-2(3H)-Benzothiazolone] as the compound, how does the IC50 (EA.hy926 cells [1]; 72 h of treatment) read?
**A.** 22 ± 4.57 µM

**Q.** With `COc1ccc(/C=C\c2cccc3sc(=O)n(C)c23)cc1OC` [Compound 16Z, (Z)-4-(3,4-Dimethoxystyryl)-3-methyl-2(3H)-benzothiazolone] as the compound, how does the IC50 (EA.hy926 cells [1]; [6]) read?
**A.** 25.8 ± 3.11 µM

**Q.** Which “fluorescent microtubule fiber formation” value [2] does the source give for `CC(=O)O[C@H]1C(=O)[C@@]2(C)[C@H]([C@H](OC(=O)c3ccccc3)[C@]3(O)C[C@H](OC(=O)[C@H](O)[C@@H](NC(=O)c4ccccc4)c4ccccc4)C(C)=C1C3(C)C)[C@]1(OC(C)=O)CO[C@@H]1C[C@@H]2O` [paclitaxel, reference compound] here?
**A.** promoted the formation of microtubule fibers

**Q.** What about the “soluble vs. polymerized tubulin ratio” value (α,β-tubulin) of the same compound?
**A.** 0.51 ± 0.19

**Q.** For `COc1ccc(/C=C\c2ccc3c(c2)sc(=O)n3C)cc1` [Compound 23Z, (Z)-6-(4-Methoxystyryl)-3-methyl-2(3H)-benzothiazolone], which IC50 (EA.hy926 cells [1]; [6]) is on record?
**A.** 19.8 ± 3.45 µM

**Q.** For `COc1cc(/C=C\c2cccc3c2sc(=O)n3C)cc(OC)c1OC` [Compound 27Z, (E/Z)-3-Methyl-7-(3,4,5-Trimethoxystyryl)-2(3H)-Benzothiazolone], which “remaining mean wound opened area” value (EA.hy926 cells [3]) is on record?
**A.** 3%

**Q.** What about the “decrease in colony number” value (EA.hy926 cells [4]) of the same compound?
**A.** 75%

**Q.** And the “reduction in colony formation” value (EA.hy926 cells [4])?
**A.** about 100%

**Q.** And the melting point?
**A.** 155 to 156 °C

**Q.** And the “reduction in cumulative tube length” value (EA.hy926 cells [5])?
**A.** ~ 70%

**Q.** What about the “soluble vs. polymerized tubulin ratio” value (α,β-tubulin) of the same compound?
**A.** 1.82 ± 0.36

**Q.** What about the IC50 (EA.hy926 cells [1]; [6]) of the same compound?
**A.** 0.3 ± 0.05 µM

**Q.** For `COc1cc(/C=C\c2cccc3sc(=O)n(C)c23)cc(OC)c1` [Compound 17Z, (Z)-4-(3,5-Dimethoxystyryl)-3-methyl-2(3H)-benzothiazolone], which IC50 (EA.hy926 cells [1]; [6]) is on record?
**A.** 19.5 ± 2.71 µM

**Q.** With `COc1cc(/C=C\c2ccc3sc(=O)n(C)c3c2)cc(OC)c1` [Compound 21Z, (Z)-5-(3,5-Dimethoxystyryl)-3-methyl-2(3H)-benzothiazolone] as the compound, how does the IC50 (EA.hy926 cells [1]; [6]) read?
**A.** 10.8 ± 0.62 µM

**Q.** Which IC50 (EA.hy926 cells [1]; [6]) does the source give for `COc1ccc(/C=C\c2ccc3sc(=O)n(C)c3c2)cc1` [Compound 19Z, (Z)-5-(4-Methoxystyryl)-3-methyl-2(3H)-benzothiazolone] here?
**A.** 12 ± 2.49 µM

**Q.** With `COc1cc(/C=C\c2ccc3sc(=O)n(C)c3c2)cc(OC)c1OC` [Compound 22Z, (Z)-3-Methyl-5-(3,4,5-trimethoxystyryl)-2(3H)-benzothiazolone] as the compound, how does the IC50 (EA.hy926 cells [1]; [6]) read?
**A.** 9.43 ± 0.92 µM

**Q.** Which IC50 (EA.hy926 cells [1]; [6]) does the source give for `COc1ccc(/C=C\c2ccc3sc(=O)n(C)c3c2)cc1OC` [Compound 20Z, (Z)-5-(3,4-Dimethoxystyryl)-3-methyl-2(3H)-benzothiazolone] here?
**A.** 14.6 ± 1.75 µM

**Q.** Which “remaining mean wound opened area” value (EA.hy926 cells [3]) does the source give for `COc1cc(/C=C\c2ccc3c(c2)sc(=O)n3C)cc(OC)c1` [Compound 25Z, (Z)-6-(3,5-Dimethoxystyryl)-3-methyl-2(3H)-benzothiazolone] here?
**A.** 22.4%

**Q.** And the “decrease in colony number” value (EA.hy926 cells [4])?
**A.** 55%

**Q.** And the “reduction in colony formation” value (EA.hy926 cells [4])?
**A.** about 100%

**Q.** What about the IC50 (EA.hy926 cells [1]; [6]) of the same compound?
**A.** 1.88 ± 0.18 µM

**Q.** For `COc1ccc(/C=C\c2ccc3c(c2)sc(=O)n3C)cc1OC` [Compound 24Z, (Z)-6-(3,4-Dimethoxystyryl)-3-methyl-2(3H)-benzothiazolone], which IC50 (EA.hy926 cells [1]; [6]) is on record?
**A.** 9.28 ± 1.13 µM

**Q.** With `COc1cc(/C=C\c2cccc3sc(=O)n(C)c23)cc(OC)c1OC` [Compound 18Z, (Z)-3-Methyl-4-(3,4,5-trimethoxystyryl)-2(3H)-benzothiazolone] as the compound, how does the IC50 (EA.hy926 cells [1]; [6]) read?
**A.** 15.6 ± 1.16 µM
